Read-outs that look alike come from different tables or passages of the source.
Experiments:
[1] = system: MYXV; test: MYXV-GFP infection rate in RK13 cells (high content microscopy); conditions: for Inhibition of MYXV infection rate (in words): RK13 cells; for IC50: MYXV in RK13 cells
Description: RK13 (rabbit epitelial kidney) cells were used for MYXV infection assay.
Cells were grown in 200 μL Dulbecco's Modified Eagle's medium (DMEM) without phenol red (Sigma-Aldrich), 10% SVF, Pen-strep, 1× sodium pyruvate, 1× Glutamax.
RK13 cells at MOI 0.5 48 h post-infection (PI) are fixed with Formalin 10 min at room temperature. Wash with 200 μL PBS and 100 μL PBS/Hoechst 33342 (1/1000) per well. 96 well plates are kept at 4° C. in the dark until data acquisition. Image acquisition and analysis for high content quantification is performed on a Thermo Cellomics Arrayscan VTI microscope using a modified compartmental analysis algorithm.
(§1) RK13 cells for the toxicity study and RK13 cells at MOI 0.01 6 days PI are fixed and image acquisition and analysis are performed as previously described.
On 48 h and 6d post-infection, data acquisition was done by high content microscopy to calculate infection level according to compound concentration.

[2] = system: RK13 cells
Description: as §1

[3] = system: MYXV; test: Lysis plaque analysis in RK13 infected with MYXV; format: cell-based, Myxoma virus; conditions: 6d PI
Description: Lysis plaque analysis was carried out in RK13 infected with MYXV 6d PI. Lysis plaques area and number of lysis plaques were assessed directly on microscope pictures (FIG. 4).

[4] = read-out: IC50 (48 h PI), MOI 0.5, 48 h post-infection
[5] = read-out: IC50 (6 d PI), MOI 0.01, 6 days post-infection

## Fc1c(F)c(F)c(-c2c3nc(c4ccc([nH]4)c(-c4c(F)c(F)c(F)c(F)c4F)c4ccc([nH]4)c(-c4c(F)c(F)c(F)c(F)c4F)c4ccc2[nH]4)C=C3)c(F)c1F [TPFCor, 5,10,15-Tris(pentafluorophenyl)corrole]
[1]
  Inhibition of MYXV infection rate (in words): better in vitro anti-MYXV effect than FNO2Cor
[1]; [4]
  IC50: 270 nM
[1]; [5]
  IC50: 120 nM
[2]
  CC50: 6680 nM
[3]; concentration 0.37 μM
  Area in cm^2 of lysis plaques: 6 cm^2
  Number of lysis plaques: 6.7
[3]; concentration 0.75 μM
  Number of lysis plaques: 6
[3]; concentration 1.5 μM
  Number of lysis plaques: 3.3
[3]; concentration 3.1 μM
  Number of lysis plaques: 4

## O=[N+]([O-])c1ccc(F)c(-c2c3nc(c4ccc([nH]4)c(-c4cc([N+](=O)[O-])ccc4F)c4ccc([nH]4)c(-c4cc([N+](=O)[O-])ccc4F)c4ccc2[nH]4)C=C3)c1 [FNO2Cor, 5,10,15-Tris(2-fluoro-5-nitrophenyl)corrole]
[1]; [4]
  IC50: 1330 nM
[1]; [5]
  IC50: 500 nM
[2]
  CC50: 3740 nM
[3]; concentration 0.37 μM
  Area in cm^2 of lysis plaques: 8 cm^2
  Number of lysis plaques: 5
[3]; concentration 0.75 μM
  Area in cm^2 of lysis plaques: 3.4 cm^2
  Number of lysis plaques: 6
[3]; concentration 1.5 μM
  Number of lysis plaques: 1.3
[3]; concentration 3.1 μM
  Number of lysis plaques: 0

## O=[N+]([O-])c1ccc(-c2c3nc(c4ccc([nH]4)c(-c4ccc([N+](=O)[O-])cc4)c4ccc([nH]4)c(-c4ccc([N+](=O)[O-])cc4)c4ccc2[nH]4)C=C3)cc1 [TpNO2Cor, 5,10,15-Tris(4-nitrophenyl)corrole]
[1]
  Inhibition of MYXV infection rate (in words): better in vitro anti-MYXV effect than FNO2Cor
[1]; [4]
  IC50: 430 nM
[1]; [5]
  IC50: 200 nM
[2]
  CC50: 4360 nM
[3]; concentration 0.37 μM
  Area in cm^2 of lysis plaques: 9 cm^2
  Number of lysis plaques: 4
[3]; concentration 0.75 μM
  Area in cm^2 of lysis plaques: 3.4 cm^2
  Number of lysis plaques: 6.7
[3]; concentration 1.5 μM
  Number of lysis plaques: 2.7
[3]; concentration 3.1 μM
  Number of lysis plaques: 0

From patent US11529332B2 (priority 2017, dated 2022)
